{"source": "patent US20150119363A1", "about": "“METHODS OF TREATING BACTERIAL INFECTIONS” (Rampex Pharmaceuticals, Inc., priority 2012, published 2015)", "type_in_all_cases": "cell-based", "key": {"[1]": {"tested_on": "E. coli EC1061 (NDM-1 CMY-6)", "test": "Aztreonam/Tigemonam MIC at various concentrations of BLI", "conditions": "for MIC: Escherichia coli, E. coli EC1061, read-out: Tigemonam MIC", "protocol": "MIC values for each bacterial strain were measured for each antimicrobial compound at various concentrations of each BLI. […]"}, "[2]": {"tested_on": "bacterial strains that expressed the beta-lactamase, NDM-1 and CMY-6", "test": "Aztreonam/Tigemonam MIC at various concentrations of BLI (summary)", "protocol": "(§1) MIC values for each bacterial strain were measured for each antimicrobial compound at various concentrations of each BLI."}, "[3]": {"tested_on": "K. pneumoniae KP1081 (NDM-1, CMY-6, SHV-11, CTX-M-15, TEM-1)", "test": "Aztreonam/Tigemonam MIC at various concentrations of BLI", "conditions": "KP1081", "protocol": "as §1"}, "[4]": {"tested_on": "E. coli EC1061 (NDM-1 CMY-6)", "test": "Aztreonam/Tigemonam MIC at various concentrations of BLI", "conditions": "Compound 68 0 μg/ml"}}, "note": "Where two headings read alike, the source gives them in different places."}
{"smiles": "O=C(O)C[C@H]1C=CC[C@H](NC(=O)Cc2cccs2)B(O)O1", "note": "[Compound 68, 2-((3R,7S)-2-hydroxy-3-(2-(thiophen-2-yl)acetamido)-2,3,4,7-tetrahydro-1,2-oxaborepin-7-yl)acetic acid]", "values": [{"measurement": "MIC", "setting": "[1]; with 0.31 μg/ml Compound A", "value": 0.5, "unit": "µg/mL"}, {"measurement": "effect on Aztreonam or Tigemonam MICs", "setting": "[2]", "value": "decreased the Aztreonam or Tigemonan MICs"}]}
{"smiles": "CC1(C)[C@H](NC(=O)/C(=N\\OCC(=O)O)c2csc(N)n2)C(=O)N1OS(=O)(=O)O", "note": "[Tigemonam, reference compound]", "values": [{"measurement": "Tigemonam MIC (μg/ml) in the presence of BLI", "setting": "[1]; EC1061, Compound 5 0 μg/ml", "value": 8, "unit": "µg/mL"}, {"measurement": "MIC", "setting": "[1]; tigemonam alone", "value": 8, "unit": "µg/mL"}, {"measurement": "Tigemonam MIC (μg/ml) in the presence of BLI", "setting": "[3]; Compound 5 0 μg/ml", "value": 16, "unit": "µg/mL"}, {"measurement": "Tigemonam MIC (μg/ml) in the presence of BLI", "setting": "[3]; Compound 68 0 μg/ml", "value": 16, "unit": "µg/mL"}, {"measurement": "Tigemonam MIC (μg/ml) in the presence of BLI", "setting": "[4]", "value": 16, "unit": "µg/mL"}]}
